# Data published in patent US10011573B2, “Human androgen receptor DNA-binding domain (DBD) compounds as therapeutics and methods for their use” (The University of British Columbia, priority 2014, dated 2018).
# Where two headings read alike, the source gives them in different places.
# Experiments:
# [1] = biological target: T1, androgen receptor (AR) (Homo sapiens, UniProt P10275, T878A); test: eGFP cellular AR transcription assay (LNCaP eGFP cells, LN-ARR2PB-eGFP); conditions: for inhibition at 3 µM: LNCaP, read-out: % Inhibition (3 μM)
# T1 sequence (P10275 1-920 T878A): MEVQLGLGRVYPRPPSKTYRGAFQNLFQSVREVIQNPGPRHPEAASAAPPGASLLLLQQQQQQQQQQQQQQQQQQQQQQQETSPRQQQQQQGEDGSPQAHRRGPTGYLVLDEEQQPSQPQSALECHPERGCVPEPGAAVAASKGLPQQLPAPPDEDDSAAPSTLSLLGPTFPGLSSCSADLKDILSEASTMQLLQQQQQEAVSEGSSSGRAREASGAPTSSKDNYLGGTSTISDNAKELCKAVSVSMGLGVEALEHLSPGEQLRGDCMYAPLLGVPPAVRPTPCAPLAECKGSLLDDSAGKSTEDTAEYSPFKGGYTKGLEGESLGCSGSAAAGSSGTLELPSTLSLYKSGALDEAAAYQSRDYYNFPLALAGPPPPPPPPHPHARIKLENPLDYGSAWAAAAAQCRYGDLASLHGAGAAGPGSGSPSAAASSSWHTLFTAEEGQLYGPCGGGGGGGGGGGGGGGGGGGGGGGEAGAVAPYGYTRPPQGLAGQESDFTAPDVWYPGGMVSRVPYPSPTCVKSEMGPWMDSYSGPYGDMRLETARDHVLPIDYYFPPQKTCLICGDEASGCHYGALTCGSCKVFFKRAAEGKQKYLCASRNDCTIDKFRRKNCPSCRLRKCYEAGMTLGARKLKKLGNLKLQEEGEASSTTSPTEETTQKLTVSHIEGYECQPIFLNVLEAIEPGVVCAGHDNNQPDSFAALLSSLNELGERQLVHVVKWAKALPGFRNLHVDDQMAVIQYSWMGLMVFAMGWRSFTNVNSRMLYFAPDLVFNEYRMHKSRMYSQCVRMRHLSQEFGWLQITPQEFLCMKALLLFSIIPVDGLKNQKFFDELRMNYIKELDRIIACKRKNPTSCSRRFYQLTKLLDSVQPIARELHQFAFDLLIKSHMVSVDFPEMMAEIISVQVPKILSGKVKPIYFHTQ
# [2] = system: PSA; test: Prostate-specific antigen (PSA) assay, secreted PSA from the eGFP assay plates; type: cell-based, human
# Experimental: 3. Prostate-specific antigen (PSA) assay: The evaluation of PSA levels secreted into the media was performed in parallel to the eGFP assay using the same plates. After cells were incubated for 3 days, 150 μl of the media was taken from each well, and added to 150 μl of PBS.
# [3] = eGFP IC50 (μM), LNCaP eGFP cells
smiles,measurement,setting,value
"Clc1ncn(-c2csc(N3CCOCC3)n2)c1Br [Compound 14451, 4-(4-(5-bromo-4-chloro-1H-imidazol-1-yl)thiazol-2-yl)morpholine]",IC50,"[1]; eGFP IC50 (μM), Series 1",0.33 µM
same,IC50,"[2]; Homo sapiens, Series 1",440 nM
Cc1ccc(C)c(-c2csc(N3CCOCC3)n2)c1 [Compound 14293],IC50,"[1]; eGFP IC50 (μM), Series 1",0.62 µM
same,IC50,"[2]; Homo sapiens, Series 1",520 nM
Oc1cc(F)ccc1-c1csc(N2CCOCC2)n1 [Compound 14364],% Inhibition (3 μM),[1],91.26%
same,IC50,[1]; read-out: eGFP IC50,1.22 µM
same,IC50,[2]; Series 1,810 nM
"Clc1c(Br)ncn1-c1csc(N2CCOCC2)n1 [Compound 14450, 4-(4-(4-bromo-5-chloro-1H-imidazol-1-yl)thiazol-2-yl)morpholine]",IC50,"[1]; eGFP IC50 (μM), Series 1",1.3 µM
same,IC50,"[2]; Homo sapiens, Series 1",1280 nM
Oc1cccc(N2Cc3ccccc3C2)c1 [Compound 14309],IC50,[1]; [3],0.75 µM
same,IC50,"[2]; Homo sapiens, secreted PSA",500 nM
c1ccc(-c2ccc3ccccc3n2)cc1 [Compound 14390],inhibition at 3 µM,[1],80.2%
same,IC50,[1]; [3],2.6 µM
same,IC50,"[2]; Homo sapiens, secreted PSA",1230 nM
N#Cc1cc(N2CCOCC2)nc2ccccc12 [Compound 14395],inhibition at 3 µM,[1],103%
same,IC50,[1]; [3],0.54 µM
same,IC50,"[2]; Homo sapiens, secreted PSA",540 nM
Cc1ncn(-c2csc(N3CCOCC3)n2)c1C [Compound 14399],IC50,[1]; read-out: eGFP IC50,3.65 µM
same,IC50,[2]; Series 1,2420 nM
Fc1ccc(F)c(-c2csc(N3CCOCC3)n2)c1 [Compound 14262],% Inhibition (3 μM),[1],96.6%
same,IC50,[2]; Series 1,10400 nM
Cc1[nH]c2ccccc2c1-c1csc(N2CCOCC2)n1 [Compound 14135],inhibition at 3 µM,[1],64%
same,IC50,"[1]; eGFP IC50 (μM), Series 1",6.89 µM
same,IC50,"[2]; Homo sapiens, Series 1",7800 nM
Nc1ccccc1-c1csc(N2CCOCC2)n1 [Compound 14273],inhibition at 3 µM,[1],73.4%
same,IC50,"[1]; eGFP IC50 (μM), Series 1",1.41 µM
same,IC50,"[2]; Homo sapiens, Series 1",2030 nM
Nc1nc(-c2ccc3c(c2)CCCC3)cs1 [Compound 14198],inhibition at 3 µM,[1],54.4%
same,IC50,[1]; [3],5.51 µM
NC(=O)c1ccc(-c2ccc3ccccc3n2)cc1 [Compound 14389],inhibition at 3 µM,[1],14.5%
c1ccc(-c2csc(N3CCSCC3)n2)cc1 [Compound 14385],IC50,"[1]; eGFP IC50 (μM), Series 1",0.6 µM
NC(=S)N/N=C1\Cc2cccc3cccc1c23 [Compound 14005],inhibition at 3 µM,[1],92.5%
same,IC50,[1]; [3],2 µM
C/C(=N/O)c1ccc2c(C)ccc3c2c1CC3 [Compound 14171],inhibition at 3 µM,[1],99.6%
same,IC50,[1]; [3],3.38 µM
Clc1cnccc1-c1csc(N2CCOCC2)n1 [Compound 14446],% Inhibition (3 μM),[1],24%
COc1cccc(-c2csc(-c3ccccn3)n2)c1 [Compound 14343],% Inhibition (3 μM),[1],16.12%
Clc1ccccc1-c1csc(N2CCOCC2)n1 [Compound 14437],% Inhibition (3 μM),[1],45.04%
c1sc(N2CCOCC2)nc1C1CCCCC1 [Compound 14406],anti-AR activity (AR transcriptional inhibition) in words,[1]; LNCaP (T877A AR),lost their anti-AR activity
same,eGFP IC50,"[1]; LNCaP eGFP cells, 0.1 nM R1881",Low activity
same,inhibition at 3 µM,[1],33%
O=[N+]([O-])c1ccc(-c2csc(N3CCOCC3)n2)cc1 [Compound 14254],inhibition at 3 µM,[1],3.37%
same,IC50,"[1]; eGFP IC50 (μM), Series 1",15.8 µM
Cc1sc(N2CCOCC2)nc1-c1ccc(F)cc1 [Compound 14341],% Inhibition (3 μM),[1],43.7%
COc1ccc(-c2nc(-c3ccccc3)cs2)cc1 [Compound 14419],% Inhibition (3 μM),[1],119.36%
same,IC50,[1]; read-out: eGFP IC50,6.11 µM
CC(C)Oc1c(F)cccc1-c1csc(N2CCOCC2)n1 [Compound 14430],inhibition at 3 µM,[1],106%
same,IC50,"[1]; eGFP IC50 (μM), Series 1",5.27 µM
O=[N+]([O-])c1ccc2nc(N3CCOCC3)ccc2c1 [Compound 14454],inhibition at 3 µM,[1],0%
c1ccc2c(-c3csc(N4CCOCC4)n3)cccc2c1 [Compound 14230],inhibition at 3 µM,[1],99.5%
same,IC50,"[1]; eGFP IC50 (μM), Series 1",1.61 µM
Cc1cc(N2CCOCC2)nc2ccccc12 [Compound 14434],IC50,[1]; [3],1.09 µM
CC1CN(c2cnc3ccccc3n2)CC(C)O1 (centres unmarked) [Compound 14487],inhibition at 3 µM,[1],27%
Nc1ccc2nc(-c3cccc(O)c3)sc2c1 [Compound 14387],inhibition at 3 µM,[1],109%
same,IC50,[1]; [3],14.8 µM
CSc1ccc(-c2csc(N3CCOCC3)n2)cc1 [Compound 14297],% Inhibition (3 μM),[1],109.99%
